Reference: patent publication US11974992B2, “Use of serotonin 5-HT1A receptor agonists to treat diseases associated with sudden unexpected death in epilepsy” (Neurolixis, priority 2022, dated 2024)
“Also recorded” adds a separate entry of the source.

What was measured:
[1] = system: mouse model of the Rett syndrome; settings: cited from earlier work
[2] = system: FMR1 knock-out (KO) mice; test: Audiogenic tonic-clonic seizures (TCS) in FMR1 transgenic mice; type: in vivo, mouse
Procedure: Audiogenic Tonic-Clonic Seizures (TCS) in FMR1 Transgenic Mice
FMR1 knock-out (KO) mice were bred and weaned at postnatal day 21 (P21), and all mice were tested between P21 to P23. NLX-101 was administered at doses of 0.6, 1.2, 1.8 and 2.4 mg/kg i.p. Control FMR1 KO mice received saline. NLX-101 or saline was injected 10 min before subjecting the mice to the auditory stimulus.
To differentiate each mouse for post-hoc video analysis, mice were color coded prior to drug or saline administration. Mice (up to 4/cage) were then put in a cage with a lid; after 10 min, a speaker was placed on top of the lid, and the cage placed in a sound attenuation booth (Gretch-Ken Inc., OR); the auditory stimulus was a continuously alternating up and down frequency modulated sweep with frequencies between 2-8 kHz, presented at an intensity between 105-110 dB for 15 min. The procedure lasted a total of 20 min starting with 5 min of habituation (without a sound stimulus). The full 20-min procedure was video recorded for off-line analysis.
The typical behavior of FMR1 knock-out mice subjected to loud audio stimulus includes tonic-clonic seizures (TCS: the mouse lays on the cage bottom with hindlimb extension), and death by respiratory arrest (manifested by a deep respiratory gasp and relaxation of pinna).
The latency time (from the stimulus onset) to the occurrence of TCS and death were recorded with a stopwatch (precision: 1 sec). Survival analysis was used to analyze the probability of TCS or death by log-rank test.

[3] = system: wild-type male CF-1 mice; test: Seizures induced by corneal electrical stimulation (CES, 6 Hz, 44 mA); type: in vivo, mouse
Procedure: Seizures Induced by Corneal Electrical Stimulation (CES) in Wild-Type Mice
Experiments were carried out in accordance with the National Institute of Neurological Disorders and Stroke (NINDS) Epilepsy Therapy Screening Program (https://panache.ninds.nih.gov/TestDescription/Test6HZ). The CES test was carried out using wild-type male CF-1 mice. Seizures were induced by a low frequency (6 Hz, 0.2 msec rectangular pulse), long-duration (3 sec), 44 mA current (double the current producing seizures in 97% of animals) delivered through corneal electrodes (Barton M E, Klein B D, Wolf H H, White H S. Pharmacological characterization of the 6 Hz psychomotor seizure model of partial epilepsy. Epilepsy Res. 2001; 47:217-27). A drop of 0.5% tetracaine hydrochloride in 0.9% saline (anesthetic/electrolyte) solution was applied to the eyes just prior to the placement of corneal electrodes. The seizure in mice is characterized by an initial momentary stun followed immediately by jaw clonus, forelimb clonus, twitching of the vibrissae, and “Straub tail”. Animals not displaying this behavior within the one-minute observation period are considered “protected” from seizures.
Testing for anti-seizure activity in the CES model was performed with 4 male mice/dose/time point. […] of NLX-101 (0.02, 0.06, 0.5, 1 and 2 mg/kg i.p.) and two timepoints (30 and 120 min after drug administration) were tested.

[4] = system: wild-type male mice; test: Maximal electroshock seizure (MES) test; type: in vivo, mouse; settings: 0.02 to 2 mg/kg i.p., 30 and 120 min post-injection
Procedure: Seizures Induced in the Maximal Electroshock Seizure (MES) Test
Experiments were carried out in accordance with the National Institute of Neurological Disorders and Stroke (NINDS) Epilepsy Therapy Screening Program (https://panache.ninds.nih.gov/TestDescription/TestMES). The MES test was carried out using wild-type male mice. MES is a model for generalized tonic-clonic seizures and provides an indication of a compound's ability to prevent seizure spread when all neuronal circuits in the brain are maximally active (White H S, Johnson M, Wolf H H, Kupferberg H J. The early identification of anticonvulsant activity: role of the maximal electroshock and subcutaneous pentylenetetrazol seizure models. Ital J Neurol sci. 1995; 16:73-7). These seizures are highly reproducible and are electrophysiologically consistent with human seizures. Seizures were induced by a high frequency (60 Hz) of alternating current at 50 mA over a short duration (0.2 sec) delivered through corneal electrodes. Prior to stimulation, corneas were irrigated with 0.5% tetracaine hydrochloride for local anesthesia and 0.9% saline to improve electrical conductivity. Seizures induced by MES are characterized by tonic extension of forelimbs and hindlimbs that is followed by brief episodes of clonic activity of the forelimbs and hindlimbs. […]

[5] = system: humans; settings: cited from earlier work

| Compound | respiratory abnormalities [1] | number of FMR1 knock-out mice that died ([2]; 0.6-2.4 mg/kg i.p., 10 min before auditory stimulus, significant effects at 1.2, 1.8 and 2.4 mg/kg) | percentage of FMR1 knock-out mice displaying tonic-clonic seizures ([2]; 0.6-2.4 mg/kg i.p., 10 min before auditory stimulus, significant effects at 1.8 and 2.4 mg/kg) | mice protected from death ([2]; audiogenic tonic-clonic seizure model in FMR1 knock-out mice) | anti-seizure activity in the CES test ([3]; 0.02 to 2 mg/kg i.p., 30 and 120 min) | mice with reduced seizure occurrence in the CES test ([3]; highest dose tested (2 mg/kg i.p.), 30 min post injection) | occurrence of seizures in the MES test [4] | seizures in humans [5] |
| --- | --- | --- | --- | --- | --- | --- | --- | --- |
| Cc1cnc(CNCC2(F)CCN(C(=O)c3ccc(F)c(Cl)c3)CC2)nc1 [NLX-101] | improves the respiratory abnormalities | dose-dependently reduced | potently and efficaciously reduced seizures; also recorded: dose-dependently reduced | over 75% | did not exhibit any anti-seizure activity | 1 out of 4 | did not exhibit any anti-seizure activity; also recorded: did not affect the occurrence of seizures | – |
| N#Cc1ccc2[nH]cc(CCCCN3CCN(c4ccc5oc(C(N)=O)cc5c4)CC3)c2c1 [vilazodone] | – | – | – | – | – | – | – | induces seizures |
